Data: PMC7418971 (PLoS Pathogens, 2020)

Tests used:
[1] = target: Eng195 M2-N31 CD peptide (aa 18-60) (Influenza A virus, UniProt P06821, A27V/L43T); format: biochemical, Influenza A/England/195/2009 (H1N1)
[2] = target: Eng195 M2-S31 CD peptide (aa 18-60) (Influenza A virus, UniProt P06821, A27V/L43T/N31S); format: biochemical, Influenza A/England/195/2009 (H1N1)
[3] = test system: E195 engineered to express M2-S31; format: cell-based, influenza A virus
[4] = target: Eng195 M2-N31 TM peptide (aa 18-46) (Influenza A virus, UniProt P06821, A27V/L43T); format: biochemical, Influenza A/England/195/2009 (H1N1)
M2-N31 TM peptides = M2-N31 TM peptides (Influenza A virus, UniProt P06821, A27V/L43T); format: biochemical, Influenza A/England/195/2009 (H1N1)
Eng195 in MDCK culture = format: cell-based, influenza A virus
[5] = target: M2-N31 CD peptide channels (Influenza A virus, UniProt P06821, A27V/L43T); format: biochemical, Influenza A/England/195/2009 (H1N1)
M2-S31N (H3N2 Udorn) = conditions: read-out: IC50 in two-electrode voltage clamp assay; cited from earlier work

## OCCNC12CC3CC(CC(C3)C1)C2 [J]
[1]
  effect on M2-N31 CD peptide channel activity: inhibited
[2]
  effect on M2-S31 CD peptide channel activity: inhibited

## O=C(Nc1nnc[nH]1)c1cc2ccccc2o1 [K]
[1]
  effect on M2-N31 CD peptide channel activity: not N31
[2]
  effect on M2-S31 CD peptide channel activity: activity versus M2-S31
[3]
  antiviral effect versus E195 with M2-S31 (N31S): neither B nor K exhibited antiviral effects

## Cc1ccc2nc(Oc3ccccc3)ccc2c1 [DP9]
[1]
  % M2 activity (40 µM) N31 CD: 65.8%
[4]
  % M2 activity (40 µM) N31 TM: 100%
[2]
  % M2 activity (40 µM) S31 CD: 97.4%

## CCN1CCC(NC2C3CC4CC(C3)CC2C4)CC1 (stereo not shown) [E]
[1]
  effect on M2-N31 CD peptide channel activity: no activity
[2]
  effect on M2-S31 CD peptide channel activity: no activity

## Cc1ncc(C23CC4CC(CC(C4)C2)C3)[nH]1 [H]
[1]
  effect on M2-N31 CD peptide channel activity: inhibited
[2]
  effect on M2-S31 CD peptide channel activity: inhibited

## c1cc2nc(C34CC5CC(CC(C5)C3)C4)[nH]c2cn1 [D]
[1]
  effect on M2-N31 CD peptide channel activity: inhibited
[2]
  effect on M2-S31 CD peptide channel activity: inhibited

## Nc1nc(-c2cc3c(cc2Cl)OCCO3)cs1 [L]
[1]
  effect on M2-N31 CD peptide channel activity: inactive
[2]
  effect on M2-S31 CD peptide channel activity: inactive

## CCCCCCCCCN1C[C@H](O)[C@@H](O)[C@H](O)[C@H]1CO [NNDNJ, reference compound]
[1]
  effect on M2-N31 CD peptide channel activity: blocked the activity
[2]
  effect on M2-S31 CD peptide channel activity: blocked the activity

## CN1CCN(C(=O)c2ccc3ccccc3c2)CC1 [B]
[1]
  effect on M2-N31 CD peptide channel activity: not N31
[2]
  effect on M2-S31 CD peptide channel activity: activity versus M2-S31
[3]
  antiviral effect versus E195 with M2-S31 (N31S): neither B nor K exhibited antiviral effects

## COc1ccccc1NC(=S)NC(=O)c1cc2ccccc2cc1OC [L1.1]
[1]
  % M2 activity (40 µM) N31 CD: 32.8%
[4]
  % M2 activity (40 µM) N31 TM: 22.0%
[2]
  % M2 activity (40 µM) S31 CD: 41.8%
[3]
  antiviral effect versus E195 with M2-S31 (N31S): active
M2-N31 TM peptides
  inhibition of M2-N31 TM peptide channels in bilayer: inhibited TM peptides
Eng195 in MDCK culture
  inhibitor concentration under which virus could be expanded from plaques: ≤ 20 µM
  time for cytopathic effects (CPE) to manifest on plaque expansion: at least 48 h

## CC(N)C12CC3CC(CC(C3)C1)C2 (racemic) [rimantadine, (RS)-1-(1-adamantyl)ethanamine, reference compound]
[1]
  effect on M2-N31 CD peptide channel activity: only blocked activity of Eng195 M2-S31 peptides
[2]
  effect on M2-S31 CD peptide channel activity: blocked activity
  inhibition of channel activity of M2-WT (S31): 50%
Eng195 in MDCK culture
  inhibitor concentration under which virus could be expanded from plaques: 80 µM
  time for cytopathic effects (CPE) to manifest on plaque expansion: ≤ 24 h

## OC(CN1CCCC1)C12CC3CC(CC(C3)C1)C2 (stereo not shown) [G]
[1]
  effect on M2-N31 CD peptide channel activity: no activity
[2]
  effect on M2-S31 CD peptide channel activity: no activity

## c1csc(-c2cc(CNC34CC5CC(CC(C5)C3)C4)no2)c1 [M2WJ332, (3S,5S,7S)-N-{[5-(thiophen-2-yl)-1,2-oxazol-3-yl]methyl}tricycle[3.3.1.1~3,7~]decan-1-aminium, reference compound]
[1]
  % M2 activity (40 µM) N31 CD: 58.4%
  effect on M2-N31 CD peptide channel activity: blocked the activity
  inhibition of channel activity of the N31 CD peptide: ~ 40%
[4]
  % M2 activity (40 µM) N31 TM: 100%
  effect on M2-N31 TM peptide channel activity: no TM-specific activity
[2]
  % M2 activity (40 µM) S31 CD: 85%
[5]
  effect on CD peptide activity in bilayer: abrogate activity
  inhibition of M2-N31 CD peptide channels in bilayer: sensitive to nanomolar concentrations
M2-N31 TM peptides
  effect on TM peptide activity in bilayer: modest effect
  inhibition of M2-N31 TM peptide channels in bilayer: retained channel activity
Eng195 in MDCK culture
  inhibitor concentration under which virus could be expanded from plaques: 80 µM
  plaques retained by selected supernatants: ~ 30 % of DMSO control
  time for cytopathic effects (CPE) to manifest on plaque expansion: ≤ 24 h
M2-S31N (H3N2 Udorn)
  IC50: 16 µM

## Cc1c2ccccc2n2cc(-c3ccccc3)nc(C(C)C)c12 [DL7]
[1]
  % M2 activity (40 µM) N31 CD: 19.5%
[4]
  % M2 activity (40 µM) N31 TM: 15.0%
[2]
  % M2 activity (40 µM) S31 CD: 31.3%
